Results from patent US9822124B2, “Bicyclic heteroaromatic carboxamide compounds useful as Pim kinase inhibitors” (Incyte Corporation, priority 2014, dated 2017).

Key:
Type in all cases: biochemical
[1] = target: Pim-1 (Homo sapiens (Human), UniProt P11309); experiment: Pim-1 kinase assay (AlphaScreen, Biotin-labeled BAD peptide substrate); settings: 1 mM ATP; read-out: Pim1 IC50
Method: (§1) Pim-1 and Pim-3 kinase assays—20 μL reactions were run in white 384 well polystyrene plates dotted with 0.8 μL compound/DMSO in the assay buffer (50 mM Tris, pH 7.5, 0.01% Tween-20, 5 mM MgCl2, 0.01% BSA, 5 mM DTT), containing 0.05 μM Biotin-labeled BAD peptide substrate (AnaSpec 62269), 1 mM ATP, and […] (Pim-1, Invitrogen PV3503) or […] (Pim-3, Millipore 14-738) enzyme for 1 h at 25° C. Reactions were stopped by addition of 10 μL STOP Buffer (150 mM Tris, pH=7.5, 150 mM NaCl, 75 mM EDTA, 0.01% Tween-20, 0.3% BSA) supplemented with Phospho-Bad (Ser112) Antibody (Cell Signaling 9291) diluted 666-fold, and Streptavidin donor beads (PerkinElmer 6760002) along with Protein-A acceptor beads (PerkinElmer 6760137) at 15 μg/mL each. Supplementation of the STOP buffer with beads and stopping the reactions were done under reduced light. Prior to the stopping reactions STOP buffer with beads was preincubated for 1 h in the dark at room temperature. After stopping the reactions, plates were incubated for 1 h in the dark at room temperature before reading on a PHERAstar FS plate reader (BMG Labtech) under reduced light.

[2] = target: Pim-2 (Homo sapiens (Human), UniProt Q9P1W9); experiment: Pim-2 kinase assay (TR-FRET, Fluorescein-labeled CREBtide peptide substrate); settings: 1 mM ATP; read-out: Pim2 IC50
Method: Pim-2 kinase assay—20 μL reactions were run in white 384 well polystyrene plates dotted with 0.8 μL compound/DMSO in the assay buffer (50 mM Tris, pH 7.5, 0.01% Tween-20, 5 mM MgCl2, 0.01% BSA, 5 mM DTT), containing 0.05 μM Fluorescein-labeled CREBtide peptide substrate (Invitrogen PV3508), 1 mM ATP, and 1 nM enzyme (Invitrogen PV3649) for 2 h at 25° C. Reactions were stopped by addition of 10 μL TR-FRET Dilution Buffer (Invitrogen PV3574) with 30 mM EDTA and 1.5 nM LanthaScreen Tb-CREB pSer133 antibody (Invitrogen PV3566). After 30 min. incubation at room temperature, plates were read on a PHERAstar FS plate reader (BMG Labtech).

[3] = target: Pim-3 (Homo sapiens (Human), UniProt Q86V86); experiment: Pim-3 kinase assay (AlphaScreen, Biotin-labeled BAD peptide substrate); settings: 1 mM ATP; read-out: Pim3 IC50
Method: as §1

Pim-1, sequence (P11309 whole entry): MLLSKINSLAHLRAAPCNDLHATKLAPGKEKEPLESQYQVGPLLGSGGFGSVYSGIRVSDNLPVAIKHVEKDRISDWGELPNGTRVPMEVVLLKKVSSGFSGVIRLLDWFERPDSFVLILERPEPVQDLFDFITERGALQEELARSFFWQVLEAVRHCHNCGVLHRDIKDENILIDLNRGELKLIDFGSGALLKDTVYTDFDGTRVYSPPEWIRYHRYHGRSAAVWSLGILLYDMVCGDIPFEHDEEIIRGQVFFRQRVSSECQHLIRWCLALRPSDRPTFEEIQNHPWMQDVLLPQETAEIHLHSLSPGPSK
Pim-2, sequence (Q9P1W9 whole entry): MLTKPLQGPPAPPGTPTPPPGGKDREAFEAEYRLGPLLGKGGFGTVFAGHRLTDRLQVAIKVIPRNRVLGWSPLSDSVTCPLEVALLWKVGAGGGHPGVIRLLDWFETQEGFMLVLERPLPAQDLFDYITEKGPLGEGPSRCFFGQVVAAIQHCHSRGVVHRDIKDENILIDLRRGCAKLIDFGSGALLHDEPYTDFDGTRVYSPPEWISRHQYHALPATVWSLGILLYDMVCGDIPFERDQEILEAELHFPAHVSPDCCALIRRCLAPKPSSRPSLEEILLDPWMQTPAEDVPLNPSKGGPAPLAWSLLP

| SMILES | IC50 [1] [nM] | IC50 [2] [nM] | IC50 [3] [nM] |
| --- | --- | --- | --- |
| C[C@@H]1C[C@H](N)CN(c2ccncc2NC(=O)c2ccc3occ(-c4cncc(C#N)c4)c3n2)C1 [Example 26, N-(4-((3S,5R)-3-Amino-5-methylpiperidin-1-yl)pyridin-3-yl)-3-(5-cyanopyridin-3-yl)furo[3,2-b]pyridine-5-carboxamide] | ≤ 10 | > 2000 | 10 to 50 |
| C[C@@H]1C[C@H](N)CN(c2ccncc2NC(=O)c2ccc3occ(C4=COCCC4)c3n2)C1 [Example 33, N-(4-((3S,5R)-3-Amino-5-methylpiperidin-1-yl)pyridin-3-yl)-3-(3,4-dihydro-2H-pyran-5-yl)furo[3,2-b]pyridine-5-carboxamide] | ≤ 10 | ≤ 100 | ≤ 10 |
| C[C@@H]1C[C@H](N)CN(c2ccncc2NC(=O)c2ccc3occ(-c4cc(F)nc(F)c4)c3n2)C1 [Example 27, N-(4-((3S,5R)-3-Amino-5-methylpiperidin-1-yl)pyridin-3-yl)-3-(2,6-difluoropyridin-4-yl)furo[3,2-b]pyridine-5-carboxamide] | 10 to 50 | > 2000 | > 40 |
| C[C@H]1CN(c2ccncc2NC(=O)c2ccc3oc(-c4c(F)cccc4F)cc3n2)C[C@@H](N)[C@@H]1O [Example 8, N-(4-((3R,4R,5S)-3-Amino-4-hydroxy-5-methylpiperidin-1-yl)pyridin-3-yl)-2-(2,6-difluorophenyl)furo[3,2-b]pyridine-5-carboxamide] | ≤ 10 | > 2000 | 10 to 50 |
| C[C@@H]1C[C@H](N)CN(c2ccncc2NC(=O)c2ccc3occ(-c4cncnc4)c3n2)C1 [Example 30, N-(4-((3S,5R)-3-Amino-5-methylpiperidin-1-yl)pyridin-3-yl)-3-(pyrimidin-5-yl)furo[3,2-b]pyridine-5-carboxamide] | 10 to 50 | > 2000 | > 40 |
| CC(C)c1coc2ccc(C(=O)Nc3cnccc3[C@@H]3C[C@H](C)C[C@H](N)C3)nc12 [Example 68, N-{4-[(1R,3S,5S)-3-Amino-5-methylcyclohexyl]pyridin-3-yl}-3-isopropylfuro[3,2-b]pyridine-5-carboxamide] | ≤ 10 | ≤ 100 | ≤ 10 |
| C[C@@H]1C[C@H](N)CN(c2ccncc2NC(=O)c2ccc3oc(-c4ccc(N5CCOCC5)nc4)cc3n2)C1 [Example 5, N-(4-((3S,5R)-3-Amino-5-methylpiperidin-1-yl)pyridin-3-yl)-2-(6-morpholinopyridin-3-yl)furo[3,2-b]pyridine-5-carboxamide] | ≤ 10 | 1000 to 10000 | ≤ 10 |
| CC(C)c1cnn2ccc(C(=O)Nc3cnccc3[C@@H]3C[C@H](C)C[C@H](N)C3)nc12 [Example 82, N-{4-[(1R,3S,5S)-3-Amino-5-methylcyclohexyl]pyridin-3-yl}-3-isopropylpyrazolo[1,5-a]pyrimidine-5-carboxamide] | ≤ 10 | 1000 to 10000 | 10 to 50 |
| C[C@@H]1C[C@H](N)CN(c2ccncc2NC(=O)c2ccc3occ(C4CCOC4)c3n2)C1 (mixture of isomers) [Example 31, N-(4-((3S,5R)-3-Amino-5-methylpiperidin-1-yl)pyridin-3-yl)-3-(tetrahydrofuran-3-yl)furo[3,2-b]pyridine-5-carboxamide] | ≤ 10 | 100 to 1000 | ≤ 10 |
| C[C@H]1CN(c2ccncc2NC(=O)c2ccc3sc(C4CC4)cc3n2)C[C@@H](N)[C@@H]1O [Example 47, N-(4-((3R,4R,5S)-3-Amino-4-hydroxy-5-methylpiperidin-1-yl)pyridin-3-yl)-2-cyclopropylthieno[3,2-b]pyridine-5-carboxamide] | ≤ 10 | ≤ 100 | ≤ 10 |
| C[C@H]1CN(c2ccncc2NC(=O)c2ccc3sc(-c4cnn(C)c4)cc3n2)C[C@@H](N)[C@@H]1O [Example 48, N-(4-((3R,4R,5S)-3-Amino-4-hydroxy-5-methylpiperidin-1-yl)pyridin-3-yl)-2-(1-methyl-1H-pyrazol-4-yl)thieno[3,2-b]pyridine-5-carboxamide] | ≤ 10 | ≤ 100 | ≤ 10 |
| C[C@@H]1C[C@H](N)CN(c2ccncc2NC(=O)c2ccc3scc(C4CC4)c3n2)C1 [Example 65, N-(4-((3S,5R)-3-Amino-5-methylpiperidin-1-yl)pyridin-3-yl)-3-cyclopropylthieno[3,2-b]pyridine-5-carboxamide] | ≤ 10 | ≤ 100 | ≤ 10 |
| Cc1cc2nc(C(=O)Nc3cnccc3N3C[C@@H](N)[C@H](O)[C@@H](C)C3)ccc2s1 [Example 49, N-(4-((3R,4R,5S)-3-Amino-4-hydroxy-5-methylpiperidin-1-yl)pyridin-3-yl)-2-methylthieno[3,2-b]pyridine-5-carboxamide] | ≤ 10 | 100 to 1000 | ≤ 10 |
| C[C@@H]1C[C@H](N)CN(c2ccncc2NC(=O)c2ccc3occ(-c4cnoc4)c3n2)C1 [Example 28, N-(4-((3S,5R)-3-Amino-5-methylpiperidin-1-yl)pyridin-3-yl)-3-(isoxazol-4-yl)furo[3,2-b]pyridine-5-carboxamide] | ≤ 10 | > 2000 | 10 to 50 |
| C[C@@H]1C[C@H](N)CN(c2ccncc2NC(=O)c2ccc3occ(C4CCOCC4)c3n2)C1 [Example 25, N-(4-((3S,5R)-3-Amino-5-methylpiperidin-1-yl)pyridin-3-yl)-3-(tetrahydro-2H-pyran-4-yl)furo[3,2-b]pyridine-5-carboxamide] | ≤ 10 | 100 to 1000 | ≤ 10 |
| C[C@@H]1C[C@H](N)CN(c2ccncc2NC(=O)c2ccc3oc(-c4c(F)cccc4F)cc3n2)C1 [Example 4, N-(4-((3S,5R)-3-Amino-5-methylpiperidin-1-yl)pyridin-3-yl)-2-(2,6-difluorophenyl)furo[3,2-b]pyridine-5-carboxamide] | ≤ 10 | > 2000 | 10 to 50 |
| C[C@@H]1C[C@H](N)CN(c2ccncc2NC(=O)c2ccc3sc(-c4c(F)cccc4F)cc3n2)C1 [Example 52, N-(4-((3S,5R)-3-Amino-5-methylpiperidin-1-yl)pyridin-3-yl)-2-(2,6-difluorophenyl)thieno[3,2-b]pyridine-5-carboxamide] | ≤ 10 | 100 to 1000 | ≤ 10 |
| C[C@H]1CN(c2ccncc2NC(=O)c2ccc3cc([C@@H]4C[C@H]4c4ccccc4)oc3n2)C[C@@H](N)[C@@H]1O [Example 71, N-(4-((3R,4R,5S)-3-Amino-4-hydroxy-5-methylpiperidin-1-yl)pyridin-3-yl)-2-((1R,2R)-2-phenylcyclopropyl)furo[2,3-b]pyridine-6-carboxamide] | ≤ 10 | ≤ 100 | ≤ 10 |
| C[C@@H]1C[C@H](N)CN(c2ccncc2NC(=O)c2ccc3sc(-c4ccc(N5CCOCC5)nc4)cc3n2)C1 [Example 56, N-(4-((3S,5R)-3-Amino-5-methylpiperidin-1-yl)pyridin-3-yl)-2-(6-morpholinopyridin-3-yl)thieno[3,2-b]pyridine-5-carboxamide] | ≤ 10 | 100 to 1000 | ≤ 10 |
| C[C@@H]1C[C@H](N)CN(c2ccncc2NC(=O)c2ccc3occ(-c4cnn(C)c4)c3n2)C1 [Example 29, N-(4-((3S,5R)-3-Amino-5-methylpiperidin-1-yl)pyridin-3-yl)-3-(1-methyl-1H-pyrazol-4-yl)furo[3,2-b]pyridine-5-carboxamide] | ≤ 10 | 1000 to 10000 | 10 to 50 |
| C[C@H]1CN(c2ccncc2NC(=O)c2ccc3sc(Cc4ccccc4)cc3n2)C[C@@H](N)[C@@H]1O [Example 42, N-(4-((3R,4R,5S)-3-Amino-4-hydroxy-5-methylpiperidin-1-yl)pyridin-3-yl)-2-benzylthieno[3,2-b]pyridine-5-carboxamide] | ≤ 10 | 100 to 1000 | ≤ 10 |
| COc1cc(F)c(-c2cc3nc(C(=O)Nc4cnccc4N4C[C@@H](N)[C@H](O)[C@@H](C)C4)ccc3s2)c(F)c1 [Example 45, N-(4-((3R,4R,5S)-3-Amino-4-hydroxy-5-methylpiperidin-1-yl)pyridin-3-yl)-2-(2,6-difluoro-4-methoxyphenyl)thieno[3,2-b]pyridine-5-carboxamide] | ≤ 10 | 100 to 1000 | ≤ 10 |
